Columns and labels:
[1] = Binding affinity to 5'-CTAACTGAATG-3'/3'-GATTGTCTTAC-5' duplex DNA (unknown origin) in sodium cacodylate buffer assessed as change in melting temperature at 10 uM at pH 7
[2] = Binding affinity to 5'-GCTAATCAAATGA-3'/3'-CGATTACTTTACT-5' duplex DNA (unknown origin) assessed as change in melting temperature
[3] = Binding affinity to 5'-CTAACGGAATG-3'/3'-GATTGGCTTAC-5' duplex DNA (unknown origin) in sodium cacodylate buffer assessed as change in melting temperature at 10 uM at pH 7
[4] = Binding affinity to 5'-CTAACCGAATG-3'/3'-GATTGCCTTAC-5' duplex DNA (unknown origin) in sodium cacodylate buffer assessed as change in melting temperature at 10 uM at pH 7
[5] = Binding affinity to 5'-CTAACTGAATG-3'/3'-GATTGCCTTAC-5' duplex DNA (unknown origin) in sodium cacodylate buffer assessed as change in melting temperature at 10 uM at pH 7
[6] = Binding affinity to 5'-GCTAACCGAATGA-3'/3'-CGATTGCCTTACT-5' duplex DNA (unknown origin) assessed as change in melting temperature
[7] = Binding affinity to 5'-CTAACCGAATG-3'/3'-GATTGCCTTAC-5' duplex DNA (unknown origin) in sodium cacodylate buffer assessed as change in melting temperature at pH 7
[8] = Binding affinity to 5'-GCTAACCTAATGA-3'/3'-CGATTGCATTACT-5' duplex DNA (unknown origin) assessed as change in melting temperature
[9] = Binding affinity to 5'-CTAACAGAATG-3'/3'-GATTGGCTTAC-5' duplex DNA (unknown origin) in sodium cacodylate buffer assessed as change in melting temperature at 10 uM at pH 7
[10] = Binding affinity to 5'-GCTAAACAAATGA-3'/3'-CGATTTCTTTACT-5' duplex DNA (unknown origin) assessed as change in melting temperature
[11] = Binding affinity to 5'-GCTAAGCCAATGA-3'/3'-CGATTCCGTTACT-5' duplex DNA (unknown origin) assessed as change in melting temperature
[12] = Binding affinity to 5'-CTAACAGAATG-3'/3'-GATTGACTTAC-5' duplex DNA (unknown origin) in sodium cacodylate buffer assessed as change in melting temperature at 10 uM at pH 7
[13] = Binding affinity to 5'-CTAACTGAATG-3'/3'-GATTGACTTAC-5' duplex DNA (unknown origin) in sodium cacodylate buffer assessed as change in melting temperature at 10 uM at pH 7
[14] = Binding affinity to 5'-GCTAAGCTAATGA-3'/3'-CGATTCCATTACT-5' duplex DNA (unknown origin) assessed as change in melting temperature
[15] = Binding affinity to 5'-GCTAAGCAAATGA-3'/3'-CGATTCCTTTACT-5' duplex DNA (unknown origin) assessed as change in melting temperature
[16] = Binding affinity to 5'-GCTAACCAAATGA-3'/3'-CGATTGCTTTACT-5' duplex DNA (unknown origin) assessed as change in melting temperature
[17] = Binding affinity to 5'-GCTAAACTAATGA-3'/3'-CGATTTCATTACT-5' duplex DNA (unknown origin) assessed as change in melting temperature
[18] = Binding affinity to 5'-CTAACTGAATG-3'/3'-GATTGGCTTAC-5' duplex DNA (unknown origin) in sodium cacodylate buffer assessed as change in melting temperature at 10 uM at pH 7
[19] = Binding affinity to 5'-CTAACAGAATG-3'/3'-GATTGCCTTAC-5' duplex DNA (unknown origin) in sodium cacodylate buffer assessed as change in melting temperature at 10 uM at pH 7
[20] = Binding affinity to 5'-CTAACCGAATG-3'/3'-GATTGGCTTAC-5' duplex DNA (unknown origin) in sodium cacodylate buffer assessed as change in melting temperature at 10 uM at pH 7
[21] = Binding affinity to 5'-GCTAACCCAATGA-3'/3'-CGATTGCGTTACT-5' duplex DNA (unknown origin) assessed as change in melting temperature
[22] = Binding affinity to 5'-TCCAG_GCAAC-3'/3'-AGGTCACGTTG-5' duplex DNA (unknown origin) in sodium cacodylate buffer assessed as change in melting temperature at 20 uM at pH 7
[23] = Binding affinity to 5'-TCCAG_GCAAC-3'/3'-AGGTCGCGTTG-5' duplex DNA (unknown origin) in sodium cacodylate buffer assessed as change in melting temperature at 20 uM at pH 7
[24] = Binding affinity to 5'-TCCAG_GCAAC-3'/3'-AGGTCCCGTTG-5' duplex DNA (unknown origin) in sodium cacodylate buffer assessed as change in melting temperature at 20 uM at pH 7
[25] = Binding affinity to 5'-TCCAGGCAAC-3'/3'-AGGTCCGTTG-5' duplex DNA (unknown origin) in sodium cacodylate buffer assessed as change in melting temperature at 20 uM at pH 7
[26] = Binding affinity to 5'-TCCAG_GCAAC-3'/3'-AGGTCTCGTTG-5' duplex DNA (unknown origin) in sodium cacodylate buffer assessed as change in melting temperature at 20 uM at pH 7

Question: Which results are given for `O=C(CCNCCC(=O)Nc1ccc2ccc3cccnc3c2n1)Nc1ccc2ccc3cccnc3c2n1`?
Answer: ΔTm [1]: 1.4 °C; ΔTm [2]: 4.4 °C; ΔTm [3]: 1.4 °C; ΔTm [4]: 7.8 °C; ΔTm [5]: 4.4 °C; ΔTm [6]: 4 °C; Activity [7]: Dose-dependent effect; ΔTm [8]: 5.6 °C; ΔTm [9]: 1.5 °C; ΔTm [10]: 4 °C; ΔTm [11]: 6.5 °C; ΔTm [12]: 2.1 °C; ΔTm [13]: 0.4 °C; ΔTm [14]: 5.6 °C; ΔTm [15]: 4.2 °C; ΔTm [16]: 3.8 °C; ΔTm [17]: 5.7 °C; ΔTm [18]: 0.3 °C; ΔTm [19]: 4.4 °C; ΔTm [20]: 0.3 °C; ΔTm [21]: 4.7 °C

Question: Which results are given for `O=C(CCNCCC(=O)Nc1ccc2ccccc2n1)Nc1ccc2ccccc2n1`?
Answer: ΔTm [1]: 0.2 °C; ΔTm [3]: -0.2 °C; ΔTm [4]: 2.6 °C; ΔTm [5]: 0.7 °C; ΔTm [9]: -0.4 °C; ΔTm [12]: -0.5 °C; ΔTm [13]: -0.1 °C; ΔTm [18]: -0.5 °C; ΔTm [19]: 1.6 °C; ΔTm [20]: 0.2 °C

Question: Which ΔTm [1] does the source give for `O=C(CCNCCC(=O)Nc1ccc2ccc3cccnc3c2n1)Nc1ccc2ccccc2n1` here?
Answer: The ΔTm was 1.5 °C.

Question: And the ΔTm [3]?
Answer: Its ΔTm is 0.3 °C.

Question: And the ΔTm [4]?
Answer: The ΔTm was 2.6 °C.

Question: What about the ΔTm [5] of the same compound?
Answer: Its ΔTm is 2.3 °C.

Question: What about the ΔTm [9] of the same compound?
Answer: The ΔTm was -0.2 °C.

Question: What about the ΔTm [12] of the same compound?
Answer: Its ΔTm is 0 °C.

Question: And the ΔTm [13]?
Answer: Its ΔTm is -0.1 °C.

Question: And the ΔTm [18]?
Answer: The ΔTm was 0.1 °C.

Question: What about the ΔTm [19] of the same compound?
Answer: Its ΔTm is 0.4 °C.

Question: What about the ΔTm [20] of the same compound?
Answer: Its ΔTm is 0.3 °C.

Question: For `NCCC(=O)Nc1ccc2ccc3cccnc3c2n1`, which ΔTm [1] is on record?
Answer: The ΔTm was 1.3 °C.

Question: What about the ΔTm [3] of the same compound?
Answer: Its ΔTm is 0.8 °C.

Question: And the ΔTm [22]?
Answer: The ΔTm was 3.4 °C.

Question: What about the ΔTm [4] of the same compound?
Answer: The ΔTm was 1.6 °C.

Question: What about the ΔTm [5] of the same compound?
Answer: The ΔTm was 0.4 °C.

Question: What about the ΔTm [9] of the same compound?
Answer: The ΔTm was 1.2 °C.

Question: What about the ΔTm [12] of the same compound?
Answer: Its ΔTm is 1.3 °C.

Question: And the ΔTm [13]?
Answer: The ΔTm was 0.9 °C.

Question: What about the ΔTm [23] of the same compound?
Answer: The ΔTm was 3 °C.

Question: And the ΔTm [24]?
Answer: The ΔTm was 6 °C.

Question: And the ΔTm [18]?
Answer: The ΔTm was 1.3 °C.

Question: What about the ΔTm [25] of the same compound?
Answer: The ΔTm was 0.2 °C.

Question: And the ΔTm [19]?
Answer: Its ΔTm is 0.5 °C.

Question: And the ΔTm [26]?
Answer: The ΔTm was 3.6 °C.

Question: And the ΔTm [20]?
Answer: Its ΔTm is 0.6 °C.
